Results from paper PMC12066977, “Alkyl Tail Variation on Chalcone‐Based Quaternary Pyridinium Salts as Rule‐of‐Thumb for Antimicrobial Activity” (Archiv Der Pharmazie, 2025).

Legend:
[1] = Cell viability and proliferation assay (WST8/CCK-8); type: cell-based; details: African green monkey, Vero cells (ATCC CCL-81), 48 h treatment, CCK-8; read-out: CC50 [95% CI] Vero cells
Procedure: Vero cell line (ATCC CCL‐81) was selected as a model system to investigate the overall effect of chalcones on non‐malignant mammalian cells. […] For experiments, cells were seeded into 96‐well plates at 10^4 cells/well and incubated at 37°C for 24 h. Following washes with PBS, the cell monolayer was incubated with 100 µL of medium containing the twofold serial dilutions of the compounds. Both untreated cells and cells incubated with medium containing solvent dilutions were included in each experiment as controls. The cell viability was assessed by a WST8‐based assay according to the manufacturer's instructions (CCK‐8, Cell Counting Kit‐8, Dojindo Molecular Technologies, Rockville, MD, USA). After 48 h of incubation, culture medium was removed from each well, the monolayer was washed with PBS, and 100 µL of fresh medium containing 10 µL of CCK‐8 solution was added. Following a 2 h incubation at 37°C, the OD450nm was read, and data were expressed as the percentage of cell viability relative to the untreated controls. The CC50 was obtained on the corresponding dose–response curves generated as previously reported for IC50 values. Experiments were carried out in triplicate in three biological replicates.

E. coli ATCC 25922 = experiment: Broth microdilution antimicrobial assay (MIC, IC50); type: cell-based; details: Escherichia coli, 24 h
Procedure: (§1) Reference strains of Staphylococcus aureus (ATCC 25923), Escherichia coli (ATCC 25922), and Candida albicans (ATCC 10231) were used in this study as microbial models. These strains were purchased from the American Type Culture Collection (ATCC); bacterial cultures were routinely grown on 5% blood agar plate, while fungal cultures on Sabouraud Dextrose Agar (Biolife […]., Milan, Italy). […] In short, microbial inocula were prepared at 0.5 McFarland in PBS and, subsequently, bacterial suspensions were diluted 1:200 in Mueller-Hinton broth (Sigma-Aldrich, St. Louis, MO, USA), while fungal inoculum was diluted 1:20 in RPMI-1640 medium (Gibco®, ThermoFisher Scientific Inc., Waltham, MA, USA), containing glucose 2%, 0.3% levo-glutamine buffered to pH 7.0 with 0.165 M 3-(N-morpholino) propanesulfonic acid (MOPS). A total of 100 μL of these microbial suspensions was introduced into a 96-well microplate and incubated with 100 μL of the compounds, two-fold serially diluted in the range of 100-0.19 μM. Positive controls (microbial suspensions in regular media), negative controls (only compounds), and solvent controls (microbial suspensions incubated with DMSO dilutions) were included in the tests. The plate was incubated at 37°C for 24 h, and subsequently the optical density at 630 nm (OD630nm) was spectrophotometrically measured. Experiments were carried out in triplicate in three biological replicates. […] Statistical analysis was carried out by using GraphPad Prism version 9.4.1 for Windows (GraphPad Software, San Diego, California USA, www.graphpad.com). ^a MIC (Minimum Inhibitory Concentration) were determined in vitro by means of a standardized microdilution assay, in compliance with the Clinical and laboratory Standard Institute (CLSI) guidelines (30). Microbial suspensions were prepared at 0.5 McFarland in PBS, then diluted in the media and transferred in a 96 micro-well plate together with the serially 2-fold dilutions of the compounds. After 24h of incubation at 37°C, microbial growths were evaluated by measuring the Optical Density at 600 nm, then percentage values were obtained as relative to the positive controls (microbial suspensions in regular media).

C. albicans ATCC 10231 = experiment: as above; type: cell-based; details: Candida albicans, 24 h
Procedure: as §1

S. aureus ATCC 25923 = experiment: as above; type: cell-based; details: Staphylococcus aureus
Procedure: as §1

C. albicans biofilm = experiment: Inhibition of biofilm formation (crystal violet staining); type: cell-based, Candida albicans; details: 3.125 µM; 24 h, CV staining
Procedure: The ability of some selected compounds to inhibit biofilm formation was assessed by established protocols with minor modifications. In short, exponential cultures of S. aureus, E. coli, and C. albicans grown in Tryptic Soy broth (TSB, Sigma‐Aldrich, St. Louis, MO, USA) were adjusted to a final density of 10^5 CFU/mL. Aliquots of 100 µL of the microbial cultures were transferred to a 96‐well flat‐bottom polystyrene microplate, and then incubated at 37°C for 90 min to promote bacterial adhesion. Thereafter, wells were slowly rinsed with PBS to remove nonattached cells, and 100 µL of TSB supplemented with 1% glucose containing the twofold serial dilutions of the compounds was added. After incubation at 37°C for 24 h, the free‐floating cells were removed, and the biofilms were carefully washed with PBS. The biomass was quantified by a standardized crystal violet (CV) staining. Briefly, 100 µL of CV solution (0.1% in water) was added to each well containing a completely air‐dried biofilm, and incubated for 30 min at 37°C. […] Finally, the colored supernatants were transferred to a new microplate, and the OD550nm was measured. The percentage inhibition of biofilm formation in the different experimental conditions was calculated relative to the biofilm mass formed in the absence of compounds (positive control).

SMILES: C#CCOc1ccc(C(=O)/C=C/c2ccc[n+](CCCCCCCCCCCCCC)c2)c(OCC#C)c1.[Br-] [Compound 6, (E)‐3‐{3‐[2,4‐Bis(prop‐2‐yn‐1‐yloxy)phenyl]‐3‐oxoprop‐1‐en‐1‐yl}‐1‐tetradecylpyridin‐1‐ium bromide]
- CC50 at 48 h [1]: 6.16 µM
- IC50 (E. coli ATCC 25922; ATCC25922, 50% growth inhibition, read-out: IC50 [95% confidence interval] Escherichia coli): 36.3 µM
- MIC (E. coli ATCC 25922; ATCC25922, broth microdilution, 37°C): 50 µM
- IC50 (C. albicans ATCC 10231; ATCC10231, 50% growth inhibition, read-out: IC50 [95% confidence interval] Candida albicans): 1.32 µM
- MIC (C. albicans ATCC 10231; ATCC10231, broth microdilution, 37°C): 1.56 µM
- IC50 (S. aureus ATCC 25923; ATCC25923, 50% growth inhibition, 24 h, read-out: IC50 [95% confidence interval] Staphylococcus aureus): 1.3 µM
- MIC (S. aureus ATCC 25923; ATCC25923, 24 h, broth microdilution, 37°C): 3.12 µM
- reduction in C. albicans biofilm formation (C. albicans biofilm): 68.3%
